# How the values were obtained:
# rats = test: Rat sleep parameters by EEG/EMG telemetry (WAKE, SWS, REM); format: in vivo
# Method: In the above experiment rats implanted with a two channel telemetry transmitter to record EEG and EMG simultaneously were dosed with either Merck 1 (nanosuspension 3 mg/kg; 5 ml/kg; p.o.) or vehicle (1.4% W/V hydroxypropylmethylcellulose 0.2% W/V sodium docusate; p.o.) at light on-set in a cross-over design. EEG and EMG recordings were collected for at least 12 hours. Data was converted with LoadDSI.s2s and BatchEEGpower2.s2s scripts (CED) and every 12 s epoch was automatically classified as either WAKE, SWS or REM (PS) sleep with Modulus analysis of sleep v7.xlt. Statistical analysis was done with Student's t-test for paired data. REM latency was defined as the first>1 min REM bout.
# Similar data is shown for D-amino acid oxidase inhibitor 4H-furo[3,2-b]pyrrole-5-carboxylic acid (Merck 2) in FIG. 3 and D-serine in FIG. 4 at 100 mg/kg. In this experiment rats implanted with a two channel telemetry transmitter to record EEG and EMG simultaneously were dosed with either drug (30, 100, 300 mg/kg d-serine or 25 mg/kg Merck 2) or vehicle (water or 0.5% MC) intraperitoneally at light on-set in a cross-over design. EEG and EMG recordings were collected for at least 12 hours. Data was converted with LoadDSI.s2s and BatchEEGpower2.s2 s scripts (CED) and every 12 s epoch was automatically classified as either WAKE, SWS or REM (PS) sleep with Modulus analysis of sleep v5 REM incl entries.XLT. Preliminary statistical analysis was done with Student's t-test for paired data. Significance level p<0.05.
# (§1) Rats implanted with a two channel telemetry transmitter to record EEG and EMG simultaneously were dosed acutely with either Merck 3 (5 mg/kg; i.p.) or vehicle (distilled water; i.p.) at light onset in a cross-over design. EEB and EMG recordings were collected for at least 12 hours. Data was converted with LoadDSI.s2s and BatchEEGpower2.s2s scripts (CED) and every 12 s epoch was automatically classified as either WAKE, SWS or REM (PS) sleep and Modulus analysis of sleep v7 REM incl entries and tot.xlt. Preliminary statistical analysis was done with Student's t-test for paired data. Significance level p<0.05.
# as §1, with “3 (25” for “3 (5”, “design. EEG” for “design. EEB”, “sleep with” for “sleep and”, “sleep v6” for “sleep v7”
# [1] = 30 mg/kg, cited from earlier work
# [2] = 25 mg/kg i.p., first four hours
structure (smiles),measurement,setting,value
"O=C(NCC1(CC2CC2)CCC(S(=O)(=O)CC2CC2)CC1)c1ccc(Cl)cc1Cl (centres unmarked) [Merck 1, 2,4-dichloro-N-(4-cyclopropylmethane-sulfonyl-1-cyclopropylmethylcyclohexylmethyl)benzamide]",REM latency,rats; 3 mg/kg p.o.,significant increase
same,decrease in REM sleep (mean±SEM),"rats; 3 mg/kg p.o., significant",54±7%
same,decrease in the number of entries into REM,"rats; 3 mg/kg p.o., significant",45±9%
same,decrease in the number of entries into SWS,"rats; 3 mg/kg p.o., significant",26±8%
same,increase in time spent in WAKE,"rats; 3 mg/kg p.o., trend, p=0.06",93±43%
"O=C(O)c1cc2sccc2[nH]1 [Merck 3, 4H-thieno[3,2-b]pyrrole-5-carboxylic acid]",latency to REM sleep,rats; 5 mg/kg i.p.,significantly increased
same,bout duration of SWS,"rats; 5 mg/kg i.p., 7 to 12 h time period",significantly reduced
same,time spent awake,"rats; 5 mg/kg i.p., first four hours after dosing",significantly increased
same,latency to REM,rats; 25 mg/kg i.p.,unaltered
same,latency to SWS,rats; 25 mg/kg i.p.,unaltered
same,wakefulness compared to the control,"rats; 25 mg/kg i.p., first 4 h",significantly more awake
same,time spent in REM,rats; [2],decrease
same,time spent in SWS,rats; [2],decrease
O=C(N[C@@H](c1ccccc1)[C@@H]1CCCCN1)c1cccc(C(F)(F)F)c1Cl [SSR504734],sleep parameters 24 h after drug challenge,[1]; 24 h after drug challenge,returned to control levels
same,duration of wakefulness,[1]; effect only for the first two hours,increased
same,latency time to onset of the first episode of PS,[1],increased latency time
same,paradoxical sleep (PS),[1],long-lasting reduction

# From patent US20110269782A1, “USE OF NMDA ACTIVITY ENHANCERS TO TREAT HYPERSOMNIA, REDUCED WAKEFULNESS OR REDUCED VIGILANCE” (priority 2008, published 2011)
